The record followed here is patent US8846698B2, “Pyrrolo[2,3-d]pyrimidine tropomysin-related kinase inhibitors” (Pfizer Limited, priority 2011, dated 2014).

What is called IC50 is the concentration needed to halve the response being measured.

The structures appear in SMILES notation.

The target of the assay is TRKA (Homo sapiens (Human), UniProt P04629). Description: Isolated TRK enzyme assay (HTRF KinEASE-TK), TRKA. In kind it is biochemical. The note with it: read-out: Trka enzyme (IC50). (In general: TR-FRET usually uses a lanthanide donor and a delayed reading to cut background.)
TRKA, sequence (P04629 441-796): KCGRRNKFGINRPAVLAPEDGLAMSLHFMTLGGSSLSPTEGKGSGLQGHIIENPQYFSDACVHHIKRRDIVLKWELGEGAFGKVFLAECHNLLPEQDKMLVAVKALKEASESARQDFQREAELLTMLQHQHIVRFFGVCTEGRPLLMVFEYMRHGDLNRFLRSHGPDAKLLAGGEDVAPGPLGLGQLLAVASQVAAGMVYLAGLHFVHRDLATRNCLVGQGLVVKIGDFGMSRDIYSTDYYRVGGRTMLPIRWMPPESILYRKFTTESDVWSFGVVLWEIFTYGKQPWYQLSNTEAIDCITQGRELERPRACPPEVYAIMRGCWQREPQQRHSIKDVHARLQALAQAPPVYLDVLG
Regarding `Cc1ccc2ccc(CC(=O)Nc3cncc(C(=O)c4cn(C(CO)CO)c5ncncc45)c3)cc2n1` [Example 275, N-[5-({7-[2-hydroxy-1-(hydroxymethyl)ethyl]-7H-pyrrolo[2,3-d]pyrimidin-5-yl}carbonyl)pyridin-3-yl]-2-(2-methylquinolin-7-yl)acetamide], the IC50 was 5100 nM.
The result for `O=C(Cc1ccc(Cl)c(Cl)c1)Nc1cncc(C(=O)c2cn(C(CO)CO)c3ncncc23)c1` [Example 276, 2-(3,4-dichlorophenyl)-N-[5-({7-[2-hydroxy-1-(hydroxymethyl)ethyl]-7H-pyrrolo[2,3-d]pyrimidin-5-yl}carbonyl)pyridin-3-yl]acetamide] reads 295 nM; that for `O=C(Cc1ccc(C(F)(F)F)c(F)c1)Nc1cncc(C(=O)c2cn(C(CO)CO)c3ncncc23)c1` [Example 277, 2-[3-fluoro-4-(trifluoromethyl)phenyl]-N-[5-({7-[2-hydroxy-1-(hydroxymethyl)ethyl]-7H-pyrrolo[2,3-d]pyrimidin-5-yl}carbonyl)pyridin-3-yl]acetamide], 434 nM; that for `O=C(Cc1ccc(Cl)cc1Cl)Nc1cncc(C(=O)c2cn(C(CO)CO)c3ncncc23)c1` [Example 278, 2-(2,4-dichlorophenyl)-N-[5-({7-[2-hydroxy-1-(hydroxymethyl)ethyl]-7H-pyrrolo[2,3-d]pyrimidin-5-yl}carbonyl)pyridin-3-yl]acetamide], 54.3 nM.
Next, `O=C(Cc1cccc(OC(F)(F)F)c1)Nc1cncc(C(=O)c2cn(C(CO)CO)c3ncncc23)c1` [Example 279, N-[5-({7-[2-hydroxy-1-(hydroxymethyl)ethyl]-7H-pyrrolo[2,3-d]pyrimidin-5-yl}carbonyl)pyridin-3-yl]-2-[3-(trifluoromethoxy)phenyl]acetamide]: 439 nM.
As for `O=C(Cc1ccc(OC(F)(F)F)cc1)Nc1cncc(C(=O)c2cn(C(CO)CO)c3ncncc23)c1` [Example 280, N-[5-({7-[2-hydroxy-1-(hydroxymethyl)ethyl]-7H-pyrrolo[2,3-d]pyrimidin-5-yl}carbonyl)pyridin-3-yl]-2-[4-(trifluoromethoxy)phenyl]acetamide], the IC50 was 498 nM.
`O=C(Nc1cncc(C(=O)c2cn(C(CO)CO)c3ncncc23)c1)c1cc(F)cc(C(F)(F)F)c1` [Example 281, 3-fluoro-N-[5-({7-[2-hydroxy-1-(hydroxymethyl)ethyl]-7H-pyrrolo[2,3-d]pyrimidin-5-yl}carbonyl)pyridin-3-yl]-5-(trifluoromethyl)benzamide]: the half-maximal inhibitory concentration (IC50) came out at 161 nM.
Next, `O=C(Cc1ccc(Cl)cn1)Nc1cncc(C(=O)c2cn(C(CO)CO)c3ncncc23)c1` [Example 282, 2-(5-chloropyridin-2-yl)-N-[5-({7-[2-hydroxy-1-(hydroxymethyl)ethyl]-7H-pyrrolo[2,3-d]pyrimidin-5-yl}carbonyl)pyridin-3-yl]acetamide]: 1010 nM; `O=C(Cn1ccc(C(F)(F)F)n1)Nc1cncc(C(=O)c2cn(C(CO)CO)c3ncncc23)c1` [Example 283, N-[5-({7-[2-hydroxy-1-(hydroxymethyl)ethyl]-7H-pyrrolo[2,3-d]pyrimidin-5-yl}carbonyl)pyridin-3-yl]-2-[3-(trifluoromethyl)-1H-pyrazol-1-yl]acetamide]: 297 nM.
Turning to `CC(C)n1cc(C(=O)c2cncc(NC(=O)[C@@H](Cc3ccc(C(=O)c4ccccc4)cc3)NC(=O)OC(C)(C)C)c2)c2cncnc21` [Example 284, 4-benzoyl-N-alpha-(tert-butoxycarbonyl)-N-{5-[(7-isopropyl-7H-pyrrolo[2,3-d]pyrimidin-5-yl)carbonyl]pyridin-3-yl}-L-phenylalaninamide], the IC50 came to 2020 nM.
On to `CC(C)n1cc(C(=O)c2cncc(NC(=O)[C@H](N)Cc3ccc(C(=O)c4ccccc4)cc3)c2)c2cncnc21` [Example 285, 4-benzoyl-N-{5-[(7-isopropyl-7H-pyrrolo[2,3-d]pyrimidin-5-yl)carbonyl]pyridin-3-yl}-D-phenylalaninamide], for which the half-maximal inhibitory concentration (IC50) was found to be 7820 nM.
